Values of other authors as cited in US20250078975A1, “METHODS OF PREDICTING PATIENT TREATMENT RESPONSE AND RESISTANCE VIA SINGLE-CELL TRANSCRIPTOMICS OF THEIR TUMORS” (The USA, as represented by the Secretary, Department of …, priority 2023, published 2025).

Tested on: cancer cell lines
Settings: through downregulation of Akt (Bartholomeusz et al. 2011)

## Nc1ccn([C@@H]2O[C@H](CO)[C@@H](O)C2(F)F)c(=O)n1 [gemcitabine]
  Effect on erlotinib resistance: can overcome erlotinib resistance
